Results: paper PMC6861653 (Chembiochem : a European journal of chemical biology, 2019)
*1 amine or outer side, *2 acyl side, *3 side chain or, on linkers, in order; H or OH if unused. Where a SMILES comes first, the peptide text is derived from it. [ ]: non-standard residue; d: D form. X1 = O=C([C@H]1CCC[C@@H]1N[*:1])[*:2]

Legend:
Type in all cases: cell-based
GLP-1R [1] = molecular target: T1, GLP-1R (Homo sapiens, UniProt P43220); assay: Signaling bias by Black-Leff operational model
GLP-1R [2] = molecular target: T1, GLP-1R; details: HEK293 GloSensor cells transiently expressing GLP-1R
[3] = molecular target: GLP-1R-RLuc8 / GFP^2-β-arrestin-1 (Homo sapiens, UniProt P43220); assay: β-arrestin-1 recruitment to GLP-1R, BRET assay in HEK293FT cells
Sequence of GLP-1R-RLuc8 / GFP^2-β-arrestin-1 (P43220 24-463): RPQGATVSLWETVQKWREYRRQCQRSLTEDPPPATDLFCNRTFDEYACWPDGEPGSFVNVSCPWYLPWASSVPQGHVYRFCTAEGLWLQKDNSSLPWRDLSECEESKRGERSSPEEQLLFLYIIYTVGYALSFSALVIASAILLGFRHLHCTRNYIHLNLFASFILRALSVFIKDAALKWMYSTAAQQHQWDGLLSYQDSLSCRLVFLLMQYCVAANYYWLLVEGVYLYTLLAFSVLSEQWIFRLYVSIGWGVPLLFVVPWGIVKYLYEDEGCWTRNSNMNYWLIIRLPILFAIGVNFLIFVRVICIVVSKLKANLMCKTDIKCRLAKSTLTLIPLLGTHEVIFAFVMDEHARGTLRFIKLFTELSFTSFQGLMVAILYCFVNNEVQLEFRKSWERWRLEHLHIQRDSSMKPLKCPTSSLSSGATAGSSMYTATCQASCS
Sequence of GLP-1R-RLuc8 / GFP^2-β-arrestin-1 (P49407 whole entry partner): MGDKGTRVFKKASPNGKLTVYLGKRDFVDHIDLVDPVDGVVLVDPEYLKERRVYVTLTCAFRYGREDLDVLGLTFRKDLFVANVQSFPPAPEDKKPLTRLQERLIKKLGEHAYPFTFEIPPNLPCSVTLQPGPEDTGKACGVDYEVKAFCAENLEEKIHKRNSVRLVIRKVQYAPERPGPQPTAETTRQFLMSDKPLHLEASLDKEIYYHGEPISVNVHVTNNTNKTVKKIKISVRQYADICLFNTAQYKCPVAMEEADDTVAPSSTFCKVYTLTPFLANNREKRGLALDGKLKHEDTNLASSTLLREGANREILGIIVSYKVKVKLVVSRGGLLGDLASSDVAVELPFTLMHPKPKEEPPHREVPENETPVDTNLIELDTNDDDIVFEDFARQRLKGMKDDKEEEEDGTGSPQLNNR

[4] = molecular target: GLP-1R-RLuc8 / GFP^2-β-arrestin-2(R393E, R395E) (Homo sapiens, UniProt P43220); assay: β-arrestin-2 recruitment to GLP-1R, BRET assay in HEK293FT cells
Sequence of GLP-1R-RLuc8 / GFP^2-β-arrestin-2(R393E, R395E) (P43220 24-463, stated change not applied): as the sequence (P43220 24-463) above

T1 sequence (P43220 24-463, species assumed): as the sequence (P43220 24-463) above

In the case of `CC(C)C[C@H](NC(=O)[C@H](Cc1ccc(O)cc1)NC(=O)[C@H](CO)NC(=O)[C@H]1CCC[C@@H]1NC(=O)[C@@H](NC(=O)[C@H](CC(=O)O)NC(=O)[C@H](CO)NC(=O)[C@@H](NC(=O)[C@H](Cc1ccccc1)NC(=O)[C@@H](NC(=O)CNC(=O)[C@H](CCC(=O)O)NC(=O)[C@H](C)NC(=O)[C@@H](N)Cc1c[nH]cn1)[C@@H](C)O)[C@@H](C)O)C(C)C)C(=O)N[C@H]1CCC[C@@H]1C(=O)NCC(=O)N[C@@H](CCC(N)=O)C(=O)N[C@@H](C)C(=O)N[C@H]1CCC[C@@H]1C(=O)N[C@@H](CCCCN)C(=O)N[C@@H](CCC(=O)O)C(=O)N[C@@H](Cc1ccccc1)C(=O)N[C@H]1CCC[C@@H]1C(=O)N[C@@H](C)C(=O)N[C@@H](Cc1c[nH]c2ccccc12)C(=O)N[C@@H](CC(C)C)C(=O)N[C@H]1CCC[C@@H]1C(=O)N[C@@H](CCCCN)C(=O)NCC(=O)N[C@@H](CCCNC(=N)N)C(N)=O` [4b] (H-HAEGTFTSDV[X1]SYL[X1]GQA[X1]KEF[X1]AWL[X1]KGR-NH2; N-terminus assumed), the “Signal bias relative to GLP-1, in words” value (GLP-1R [1]) is reported as “balanced signaling behavior”.
With `CC[C@H](C)[C@H](NC(=O)[C@H](Cc1ccccc1)NC(=O)C[C@H](CCC(=O)O)NC(=O)[C@H](CCCCN)NC(=O)[C@H](C)NC(=O)[C@H](C)NC(=O)C[C@H](CCC(N)=O)NC(=O)CNC(=O)[C@H](CCC(=O)O)NC(=O)[C@H](CC(C)C)NC(=O)C[C@H](Cc1ccc(O)cc1)NC(=O)[C@H](CO)NC(=O)[C@H](CO)NC(=O)[C@@H](NC(=O)[C@H](CC(=O)O)NC(=O)[C@H](CO)NC(=O)[C@@H](NC(=O)[C@H](Cc1ccccc1)NC(=O)[C@@H](NC(=O)CNC(=O)[C@H](CCC(=O)O)NC(=O)[C@H](C)NC(=O)[C@@H](N)Cc1c[nH]cn1)[C@@H](C)O)[C@@H](C)O)C(C)C)C(=O)N[C@@H](C)C(=O)N[C@H](CC(=O)N[C@@H](CC(C)C)C(=O)N[C@H](C(=O)N[C@@H](CCCCN)C(=O)NCCC(=O)N[C@@H](CCCNC(=N)N)C(N)=O)C(C)C)Cc1c[nH]c2ccccc12` [2a] the “Signal bias relative to GLP-1, in words” value (GLP-1R [1]) was “modestly biased toward cAMP production relative to β-arrestin-1 recruitment”.
For `CC[C@H](C)[C@H](NC(=O)[C@H](Cc1ccccc1)NC(=O)[C@H](CCC(=O)O)NC(=O)[C@H]1CCC[C@@H]1NC(=O)[C@H](C)NC(=O)[C@H](C)NC(=O)[C@H](CCC(N)=O)NC(=O)[C@H]1CCC[C@@H]1NC(=O)[C@H](CCC(=O)O)NC(=O)[C@H](CC(C)C)NC(=O)[C@H](Cc1ccc(O)cc1)NC(=O)[C@H]1CCC[C@@H]1NC(=O)[C@H](CO)NC(=O)[C@@H](NC(=O)[C@H](CC(=O)O)NC(=O)[C@H](CO)NC(=O)[C@@H](NC(=O)[C@H](Cc1ccccc1)NC(=O)[C@@H](NC(=O)CNC(=O)[C@H](CCC(=O)O)NC(=O)[C@H](C)NC(=O)[C@@H](N)Cc1c[nH]cn1)[C@@H](C)O)[C@@H](C)O)C(C)C)C(=O)N[C@H]1CCC[C@@H]1C(=O)N[C@@H](Cc1c[nH]c2ccccc12)C(=O)N[C@@H](CC(C)C)C(=O)N[C@H](C(=O)N[C@H]1CCC[C@@H]1C(=O)NCC(=O)N[C@@H](CCCNC(=N)N)C(N)=O)C(C)C` [1b] (H-HAEGTFTSDVS[X1]YLE[X1]QAA[X1]EFI[X1]WLV[X1]GR-NH2; N-terminus assumed), the “Signal bias relative to GLP-1, in words” value (GLP-1R [1]) was “biased toward β-arrestin-2 recruitment vs. cAMP production”.
For `CC[C@H](C)[C@H](NC(=O)[C@H](Cc1ccccc1)NC(=O)[C@H]1CCC[C@@H]1NC(=O)[C@H](CCCCN)NC(=O)[C@H](C)NC(=O)[C@H](C)NC(=O)[C@H]1CCC[C@@H]1NC(=O)CNC(=O)[C@H](CCC(=O)O)NC(=O)[C@H](CC(C)C)NC(=O)[C@H]1CCC[C@@H]1NC(=O)[C@H](CO)NC(=O)[C@H](CO)NC(=O)[C@@H](NC(=O)[C@H](CC(=O)O)NC(=O)[C@H](CO)NC(=O)[C@@H](NC(=O)[C@H](Cc1ccccc1)NC(=O)[C@@H](NC(=O)CNC(=O)[C@H](CCC(=O)O)NC(=O)[C@H](C)NC(=O)[C@@H](N)Cc1c[nH]cn1)[C@@H](C)O)[C@@H](C)O)C(C)C)C(=O)N[C@@H](C)C(=O)N[C@H]1CCC[C@@H]1C(=O)N[C@@H](CC(C)C)C(=O)N[C@H](C(=O)N[C@@H](CCCCN)C(=O)N[C@H]1CCC[C@@H]1C(=O)N[C@@H](CCCNC(=N)N)C(N)=O)C(C)C` [2b] (H-HAEGTFTSDVSS[X1]LEG[X1]AAK[X1]FIA[X1]LVK[X1]R-NH2; N-terminus assumed), the “Signal bias relative to GLP-1, in words” value (GLP-1R [1]) was “smaller bias toward β-arrestin-2 vs. cAMP production”.
`CC[C@H](C)[C@H](NC(=O)[C@H]1CCC[C@@H]1NC(=O)[C@H](CCC(=O)O)NC(=O)[C@H](CCCCN)NC(=O)[C@H](C)NC(=O)[C@H]1CCC[C@@H]1NC(=O)[C@H](CCC(N)=O)NC(=O)CNC(=O)[C@H](CCC(=O)O)NC(=O)[C@H]1CCC[C@@H]1NC(=O)[C@H](Cc1ccc(O)cc1)NC(=O)[C@H](CO)NC(=O)[C@H](CO)NC(=O)[C@@H](NC(=O)[C@H](CC(=O)O)NC(=O)[C@H](CO)NC(=O)[C@@H](NC(=O)[C@H](Cc1ccccc1)NC(=O)[C@@H](NC(=O)CNC(=O)[C@H](CCC(=O)O)NC(=O)[C@H](C)NC(=O)[C@@H](N)Cc1c[nH]cn1)[C@@H](C)O)[C@@H](C)O)C(C)C)C(=O)N[C@@H](C)C(=O)N[C@@H](Cc1c[nH]c2ccccc12)C(=O)N[C@H]1CCC[C@@H]1C(=O)N[C@H](C(=O)N[C@@H](CCCCN)C(=O)NCC(=O)N[C@H]1CCC[C@@H]1C(=O)NCC(N)=O)C(C)C` [3b] (H-HAEGTFTSDVSSY[X1]EGQ[X1]AKE[X1]IAW[X1]VKG[X1]G-NH2; N-terminus assumed) was tested, and the “GLP-1R activation by cAMP production, in words” value (GLP-1R [2]) was “no activation of the GLP-1R could be detected”, the “β-arrestin-1 recruitment to the GLP-1R, in words” value [3] was “inability to induce recruitment of either β-arrestin” and the “β-arrestin-2 recruitment to the GLP-1R, in words” value [4] was “inability to induce recruitment of either β-arrestin”.
